8 compounds from patent US12473295B2, “Substituted straight chain spiro derivatives” (Janssen Pharmaceutica NV, priority 2019, dated 2025) can be followed below.

Structures can show the parent of a compound that is named as a salt.

One data set has as its target hERG potassium channel (Homo sapiens (Human), UniProt Q12809). Description: Effect on membrane potassium current IKr in hERG transfected CHO cells, Protocol 1 (QPatch). In kind it is cell-based. Put shortly:
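Whole-cell automated patch clamp on CHO cells stably expressing hERG, held at −80 mV; the value is the tail current at −40 mV after a 2 s step to +60 mV, at pH 7.4 bath and pH 7.2 pipette. After 0.3% DMSO control, compound was applied at 3×10^−7 M, 3×10^−6 M, 10^−5 M and 3×10^−5 M, 5 min each. IC50 comes from a non-linear least-squares fit of block versus vehicle.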
For orientation: hERG is a cardiac potassium channel; its block is linked to QT prolongation.

Data set [1] can be described thus: Mouse PK (in vivo T1/2 and oral bioavailability). The following applies: fasted male CD-1 mice, formulating agent HP-β-CD; for half-life: single IV 0.5 or 1.0 mg/kg; for bioavailability: single PO 5 mg/kg.
The target in another data set is hERG (Homo sapiens (Human), UniProt Q12809). Description: Effect on membrane potassium current IKr in hERG-transfected HEK293 cells, Protocol 2 (SyncroPatch 384PE). In kind it is cell-based. As to conditions: Protocol 2, hERG-transfected HEK293 cells. Here is the method: 8) Effect on the Membrane Potassium Current IKr in hERG Transfected Cell Lines
The compound, vehicle control and positive control were tested on hERG-transfected HEK293 cells. A human embryonic kidney cell line (HEK293) with a stable transfection of hERG (Zhou Z et al. Biophysical Journal 1998. 74, 230-241; McDonald T. V. et al, Nature 1997. 388, 289-292) was used (University of Wisconsin, Madison, USA). The cells were kept in culture in MEM (Minimum Essential Medium, Gibco) which was supplemented with (amounts indicated added to 500 ml MEM): 5 ml L-Glutamine-Penicillin-Streptomycin (Sigma), 50 ml Fetal Bovine serum (Bio-Whittaker), 5 ml Non-essential Amino Acids 100× (Gibco), 5 ml sodium pyruvate 100 mM (Gibco) and 4 ml geneticin 50 mg/ml (Gibco) using T175 flasks. The cells were incubated at 37° C. in 5% CO2 atmosphere (in air).
Cell Harvesting for Assay
Cells were harvested as described below using Accumax™ (Sigma) as the dissociating reagent. Cells were then resuspended in a mixture of 33% DMEM/F12 (Dulbecco's Modified Eagle Medium/Nutrient Mixture F-12—Sigma) media/67% extracellular physiological solution.
The flasks were washed twice carefully with ˜5-10 ml phosphate buffered saline (PBS) (Gibco™) containing 2 mM EDTA (Ethylenediaminetetraacetic acid) (Sigma). The cells were dissociated using ˜3 ml of Accumax™ (cell detachment solution) and incubated for ˜5 to 10 min. at 37° C. Cold external physiological solution (2-5 ml) was added and the flasks are incubated at ˜4° C. for 5-10 min. Then, the cell suspension in each flask was gently dissociated with a 5 ml pipette. The cell suspension was transferred to a low binding petri-dish (˜[…]). Each flask was washed with ˜additional 5 ml cold external physiological solution and this solution was also added to the petri-dish. The petri-dish was then incubated for another 5 to 10 minutes at ˜4° C. After another gentle dissociation of the cell suspension in the petri dish, the cells were transferred to a reservoir kept on an orbital shaker at 200 rpm at 16° C. Before experiments were performed, the cells recovered for ˜20 min.
A 10 mM solution of the compound was used and plated in a 384 well plate. Aliquots of the stock solutions are diluted with the recording solution (see section 3) using automated liquid handling (Biomek FXP; final DMSO concentration: 0.03 to 0.3%). A standard range of screening concentrations was used ranging from 1 μM to 30 μM.
A positive control (E-4031) was included within each run to evaluate the sensitivity of the assay.
External and Intracellular Solutions Used in the Experiments
In the table below the composition of the intracellular and external buffer solutions is shown in [mM] (“NMDG” means N-methyl-D-glucamine)
The whole cell patch clamp technique on transfected cells allows the study of ion-channels with no—or limited interference from other ion-channels. The effects of the compounds on the hERG current were studied with an automated planar patch clamp system, SyncroPatch 384PE (Obergrussberger et al, Journal of Laboratory Automation 2016. 21 (6). 779-793). All cells were recorded in the whole cell mode of the patch clamp technique. The module is incorporated in a liquid handling pipetting robot system, Biomek FXP, for application of cells and compounds, vehicle control and positive control.
The different concentrations of the compounds were applied in two cumulatively increasing concentrations for the compounds (1 μM and 10 μM, and 3 μM and 30 μM, respectively). The hERG current was determined as the maximal tail current at −30 mV and percent inhibition upon compound or vehicle and positive control addition was reported.
After cells are caught onto the individual holes of the recording chips using the chip fill solution, the seal is increased with the seal enhancer solution (increased [Ca^2+]; then the cells were washed twice with recording solution before using a pressure protocol to go into the whole cell mode. […]

hERG, sequence (Q12809 whole entry): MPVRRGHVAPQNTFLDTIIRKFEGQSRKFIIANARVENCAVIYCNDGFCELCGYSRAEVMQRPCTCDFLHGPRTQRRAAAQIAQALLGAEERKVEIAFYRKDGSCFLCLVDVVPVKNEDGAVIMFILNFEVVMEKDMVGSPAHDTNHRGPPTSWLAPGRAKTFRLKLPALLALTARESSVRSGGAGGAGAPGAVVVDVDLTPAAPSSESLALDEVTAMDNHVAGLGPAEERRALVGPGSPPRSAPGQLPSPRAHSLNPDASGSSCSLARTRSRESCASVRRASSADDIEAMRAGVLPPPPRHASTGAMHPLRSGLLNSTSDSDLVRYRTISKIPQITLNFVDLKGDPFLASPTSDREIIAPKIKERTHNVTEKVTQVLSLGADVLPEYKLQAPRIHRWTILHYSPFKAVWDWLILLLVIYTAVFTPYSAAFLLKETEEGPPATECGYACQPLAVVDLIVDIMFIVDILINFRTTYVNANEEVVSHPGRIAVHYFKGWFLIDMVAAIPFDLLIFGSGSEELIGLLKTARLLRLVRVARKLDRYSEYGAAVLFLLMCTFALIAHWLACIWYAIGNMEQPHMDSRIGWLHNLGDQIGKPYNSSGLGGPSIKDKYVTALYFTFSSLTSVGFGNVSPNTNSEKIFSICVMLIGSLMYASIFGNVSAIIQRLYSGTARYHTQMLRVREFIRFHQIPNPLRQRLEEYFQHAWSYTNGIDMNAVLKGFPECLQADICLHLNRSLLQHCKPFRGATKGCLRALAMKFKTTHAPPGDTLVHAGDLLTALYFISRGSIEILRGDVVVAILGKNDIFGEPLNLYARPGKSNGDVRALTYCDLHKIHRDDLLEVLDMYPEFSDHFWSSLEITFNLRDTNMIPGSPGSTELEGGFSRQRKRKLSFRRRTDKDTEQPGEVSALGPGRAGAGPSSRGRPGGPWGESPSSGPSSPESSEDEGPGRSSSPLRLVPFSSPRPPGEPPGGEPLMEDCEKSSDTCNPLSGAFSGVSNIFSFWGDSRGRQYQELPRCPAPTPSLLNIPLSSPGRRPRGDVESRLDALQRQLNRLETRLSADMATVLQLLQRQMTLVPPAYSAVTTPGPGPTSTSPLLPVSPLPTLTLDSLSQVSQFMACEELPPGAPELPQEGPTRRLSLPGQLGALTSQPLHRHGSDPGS
hERG potassium channel, sequence (Q12809 whole entry): as above

One may read the IC50 as the concentration at which inhibition is half-maximal. The term half-life denotes the time in which the quantity being followed falls by half. A word on the bioavailability: it is the share of a dose that reaches the circulation, judged against a reference dose that is usually intravenous. Regarding `CC(C)[C@@H](CCC(C)(C)N)N1CC2(CCN(c3ncnnc3Oc3ccc(F)cc3-c3cncnc3C3CC3)C2)C1` (single isomer, unassigned) [Compound 37, (*R)-5-(6-(6-(2-(4-cyclopropylpyrimidin-5-yl)-4-fluorophenoxy)-1,2,4-triazin-5-yl)-2,6-diazaspiro[3.4]octan-2-yl)-2,6-dimethylheptan-2-amine], the IC50 on hERG potassium channel was over 30.2 µM. Further, in data set [1], the half-life was over 12 h and the bioavailability was under 1%.

Consider `COCCNCCC[C@H](C(C)C)N1CC2(CCN(c3ncnnc3Oc3ccc(F)cc3C(=O)N(C(C)C)C(C)C)C2)C1` (single isomer, unassigned) [Compound 99, (*R)-5-fluoro-N,N-isopropyl-2-((5-(2-(6-((2-methoxyethyl)amino)-2-methylhexan-3-yl)-2,6-diazaspiro[3.4]octan-6-yl)-1,2,4-triazin-6-yl)oxy)benzamide oxalate], for which the IC50 against hERG was over 30.2 µM.

For `CCN(C(=O)c1cc(F)ccc1Oc1nncnc1N1CCC2(C1)CN([C@H](CCCN)C(C)C)C2)C(C)C` [Compound 1, (R)-2-((5-(2-(6-amino-2-methylhexan-3-yl)-2,6-diazaspiro[3.4]octan-6-yl)-1,2,4-triazin-6-yl)oxy)-N-ethyl-5-fluoro-N-isopropylbenzamide formate], on hERG potassium channel, the IC50 was over 30.2 µM. In data set [1], this compound showed a half-life of 15 h and a bioavailability of under 1%.

On hERG, `CCN(C(=O)c1cc(F)ccc1Oc1nncnc1N1CCC2(C1)CN([C@H](CCCNCC(OC)OC)C(C)C)C2)C(C)C.O=C(O)/C=C/C(=O)O` [Compound 104, (R)-2-((5-(2-(6-((2,2-dimethoxyethyl)amino)-2-methylhexan-3-yl)-2,6-diazaspiro[3.4]octan-6-yl)-1,2,4-triazin-6-yl)oxy)-N-ethyl-5-fluoro-N-isopropylbenzamide fumarate] had an IC50 of over 30.2 µM. For the same compound, in data set [1], the half-life is 8.7 h and the bioavailability is 6.1%.

In turn, `CCN(C(=O)c1cc(F)ccc1Oc1nncnc1N1CCC2(C1)CN([C@H](CCCN[C@H](C)COC)C(C)C)C2)C(C)C.O=C(O)/C=C/C(=O)O` [Compound 112, N-ethyl-5-fluoro-N-isopropyl-2-(5(2-((R)-6-(((R)-1-methoxypropan-2-yl)amino)-2-methylhexan-3-yl)-2,6-diazaspiro[3.4]octan-6-yl)-1,2,4-triazin-6-yl)oxy)benzamide fumarate] showed an IC50 against hERG of over 30.2 µM.

For the compound `CCN(C(=O)c1cc(F)ccc1Oc1nncnc1N1CCC2(C1)CN([C@H](CCCNCCC(F)F)C(C)C)C2)C(C)C.O=C(O)/C=C/C(=O)O` [Compound 114, (R)-2-(5-(2-(6-((3,3-difluoropropyl)amino)-2-methylhexan-3-yl)-2,6-diazaspiro[3.4]octan-6-yl)-1,2,4-triazin-6-yl)oxy)-N-ethyl-5-fluoro-N-isopropylbenzamide fumarate], on hERG, the IC50 was over 30.2 µM.

On to `CCN(C(=O)c1cc(F)ccc1Oc1nncnc1N1CCC2(C1)CN([C@H](CCCN(C)CCNC(C)=O)C(C)C)C2)C(C)C.O=C(O)/C=C/C(=O)O` [Compound 245, (R)-2-((5-(2-(6-((2-acetamidoethyl)(methyl)amino)-2-methylhexan-3-yl)-2,6-diazaspiro[3.4]octan-6-yl)-1,2,4-triazin-6-yl)oxy)-N-ethyl-5-fluoro-N-isopropylbenzamide fumarate], for which the IC50 on hERG was over 30.2 µM. Also, in data set [1], the half-life is 7 h and the bioavailability is under 1%.

Turning to `CCN(C(=O)c1cc(F)ccc1Oc1nncnc1N1CCC2(C1)CN([C@H](CCCN(C)CCC(=O)N(C)C)C(C)C)C2)C(C)C` [Compound 246, (R)-2-((5-(2-(6-((3-(dimethylamino)-3-oxopropyl)(methyl)amino)-2-methylhexan-3-yl)-2,6-diazaspiro[3.4]octan-6-yl)-1,2,4-triazin-6-yl)oxy)-N-ethyl-5-fluoro-N-isopropylbenzamide formate], on hERG, the IC50 is over 30.2 µM.
